These results are taken from ChEMBL document CHEMBL4680193, “Isoindoline scaffold-based dual inhibitors of HDAC6 and HSP90 suppressing the growth of lung cancer in vitro and in vivo” (Eur J Med Chem, 2020).

Calls of active or inactive are those of the source. No cut-off for these calls is given here. Some results are limits rather than exact numbers.

In one assay the test system is A549. Description: Growth inhibition of human A549 cells incubated for 48 hrs by SRB assay. The class given is functional.
The target of assay [1] is Heat shock protein HSP 90-alpha (Homo sapiens, UniProt P07900). The experiment in a line: Inhibition of HSP90a (unknown origin).
The test system of assay [2] is NCI-H1975. Description: cells. The class given is functional. As to conditions: Homo sapiens, time 48 hrs.
The next assay deals with Histone deacetylase. The class given is tissue-based, Homo sapiens. The settings on record: hela.
In assay [3] the target is T1, Protein deacetylase HDAC6 (Homo sapiens, UniProt Q9UBN7).
T1 sequence (Q9UBN7 whole entry): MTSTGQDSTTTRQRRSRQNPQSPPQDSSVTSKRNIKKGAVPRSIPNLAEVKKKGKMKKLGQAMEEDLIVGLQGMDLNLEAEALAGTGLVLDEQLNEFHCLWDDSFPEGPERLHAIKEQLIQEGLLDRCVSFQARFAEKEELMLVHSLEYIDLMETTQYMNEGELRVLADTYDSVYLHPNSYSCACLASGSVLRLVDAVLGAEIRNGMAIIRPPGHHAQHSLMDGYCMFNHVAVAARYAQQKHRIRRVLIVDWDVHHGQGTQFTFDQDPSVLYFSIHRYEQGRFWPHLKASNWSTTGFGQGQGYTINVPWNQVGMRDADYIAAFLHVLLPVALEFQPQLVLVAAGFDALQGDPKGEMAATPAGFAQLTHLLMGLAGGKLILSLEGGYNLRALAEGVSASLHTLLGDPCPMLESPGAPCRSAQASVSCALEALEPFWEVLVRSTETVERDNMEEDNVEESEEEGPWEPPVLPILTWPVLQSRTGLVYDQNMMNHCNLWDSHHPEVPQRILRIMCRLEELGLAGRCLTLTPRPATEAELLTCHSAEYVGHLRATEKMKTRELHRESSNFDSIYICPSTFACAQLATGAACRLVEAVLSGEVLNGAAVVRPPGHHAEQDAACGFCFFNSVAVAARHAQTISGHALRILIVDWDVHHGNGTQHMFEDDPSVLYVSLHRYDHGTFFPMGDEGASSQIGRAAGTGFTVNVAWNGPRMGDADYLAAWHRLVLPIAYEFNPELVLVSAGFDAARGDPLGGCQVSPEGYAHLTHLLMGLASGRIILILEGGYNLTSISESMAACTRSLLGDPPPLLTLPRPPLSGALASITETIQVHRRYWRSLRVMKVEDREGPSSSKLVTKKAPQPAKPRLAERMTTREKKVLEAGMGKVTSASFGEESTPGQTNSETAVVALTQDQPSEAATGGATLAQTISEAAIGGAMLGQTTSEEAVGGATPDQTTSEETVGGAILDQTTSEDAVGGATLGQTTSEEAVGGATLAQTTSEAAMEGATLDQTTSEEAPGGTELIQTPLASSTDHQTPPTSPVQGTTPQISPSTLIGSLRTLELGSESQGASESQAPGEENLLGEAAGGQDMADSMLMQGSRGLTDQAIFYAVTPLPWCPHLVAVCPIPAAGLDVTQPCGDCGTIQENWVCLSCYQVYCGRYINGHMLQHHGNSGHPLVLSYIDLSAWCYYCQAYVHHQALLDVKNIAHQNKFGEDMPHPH
The experiment in a line: Inhibition of recombinant human HDAC6 using RHK-K(Ac)-AMC as substrate by fluorescence based assay.

The target in another assay is T2, Histone deacetylase 8 (Homo sapiens, UniProt Q9BY41).
T2 sequence (Q9BY41 whole entry): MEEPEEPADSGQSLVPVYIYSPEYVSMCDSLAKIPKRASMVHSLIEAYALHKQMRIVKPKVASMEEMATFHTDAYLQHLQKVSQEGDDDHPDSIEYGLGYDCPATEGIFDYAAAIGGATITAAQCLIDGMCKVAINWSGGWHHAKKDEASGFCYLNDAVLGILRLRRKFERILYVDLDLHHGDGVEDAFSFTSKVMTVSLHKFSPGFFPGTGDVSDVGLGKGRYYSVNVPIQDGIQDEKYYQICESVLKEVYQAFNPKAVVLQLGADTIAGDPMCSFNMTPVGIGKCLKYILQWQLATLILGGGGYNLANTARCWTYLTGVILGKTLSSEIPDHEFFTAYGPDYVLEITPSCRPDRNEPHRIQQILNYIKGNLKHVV
Description: Inhibition of recombinant human HDAC8 using RHK-K(Ac)-AMC as substrate by fluorescence based assay.

The next assay deals with Histone deacetylase 1 (Homo sapiens, UniProt Q13547). Description: Inhibition of recombinant human C-terminal FLAG-His-tagged HDAC1 (1 to 482 residues) expressed in Sf21 cells using RHK-K(Ac)-AMC as substrate incubated for 60 mins by fluorimetry analysis.
Chain of Histone deacetylase 1 (Q13547 whole entry, the tested form may be a part): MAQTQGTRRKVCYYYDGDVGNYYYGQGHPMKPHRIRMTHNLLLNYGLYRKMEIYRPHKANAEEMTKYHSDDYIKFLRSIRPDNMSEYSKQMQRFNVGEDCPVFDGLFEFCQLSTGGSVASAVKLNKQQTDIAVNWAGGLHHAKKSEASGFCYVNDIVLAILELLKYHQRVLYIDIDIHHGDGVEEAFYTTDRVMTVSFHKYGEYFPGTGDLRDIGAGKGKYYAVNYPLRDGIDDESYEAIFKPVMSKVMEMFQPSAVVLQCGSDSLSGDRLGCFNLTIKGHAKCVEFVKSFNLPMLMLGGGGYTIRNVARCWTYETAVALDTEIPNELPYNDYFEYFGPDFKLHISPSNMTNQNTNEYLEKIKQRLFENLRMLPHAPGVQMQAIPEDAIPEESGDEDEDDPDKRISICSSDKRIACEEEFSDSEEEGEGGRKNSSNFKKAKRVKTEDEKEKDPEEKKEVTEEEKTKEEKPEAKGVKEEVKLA
The species named for assay [4] is Homo sapiens. The experiment in a line: Selectivity index, ratio of IC50 for recombinant human C-terminal FLAG-His-tagged HDAC1 (1 to 482 residues) expressed in Sf21 cells to IC50 for recombinant human HDAC6.
A further assay deals with Histone deacetylase 3 (Homo sapiens, UniProt O15379).
Chain of Histone deacetylase 3 (O15379 whole entry): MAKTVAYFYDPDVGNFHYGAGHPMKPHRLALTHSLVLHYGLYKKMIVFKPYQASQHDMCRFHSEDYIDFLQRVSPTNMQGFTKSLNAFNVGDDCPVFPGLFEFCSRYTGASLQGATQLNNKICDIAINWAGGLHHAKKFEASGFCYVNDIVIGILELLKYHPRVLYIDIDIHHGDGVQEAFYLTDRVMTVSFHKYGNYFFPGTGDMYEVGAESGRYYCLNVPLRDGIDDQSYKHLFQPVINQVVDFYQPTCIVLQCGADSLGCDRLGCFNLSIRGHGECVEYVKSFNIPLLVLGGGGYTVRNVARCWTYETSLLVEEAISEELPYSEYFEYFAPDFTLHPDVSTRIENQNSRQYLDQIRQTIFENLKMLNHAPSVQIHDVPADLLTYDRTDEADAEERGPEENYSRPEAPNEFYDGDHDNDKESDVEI
The species entered for assay [5] is Homo sapiens. The experiment in a line: Selectivity index, ratio of IC50 for recombinant human HDAC3 to IC50 for recombinant human HDAC6.
The species entered for assay [6] is Homo sapiens. The experiment in a line: Selectivity index, ratio of IC50 for recombinant human HDAC8 to IC50 for recombinant human HDAC6.
Assay [7] deals with T3, Heat shock protein HSP90 (Homo sapiens) (UniProt P07900+P08238). The experiment in a line: Inhibition of HSP90 in human NCI-H1975 cells assessed as decrease in STAT3 Tyr705 phosphorylation at 1 to 3 uM measured after 24 hrs by Western blot analysis. The format is cell-based. As to conditions: dose 1-3 µM.
In assay [8] the target is T3, Heat shock protein HSP90 (Homo sapiens). The experiment in a line: Inhibition of HSP90 in human NCI-H1975 cells assessed as decrease in Akt Ser473 phosphorylation at 1 to 3 uM measured after 24 hrs by Western blot analysis. The format is cell-based. The settings on record: dose 1-3 µM.
For assay [9], the system named is NCI-H1975. Description: Antitumor activity against human NCI-H1975 cells xenografted in BALB/c mouse assessed as reduction in tumor growth at 20 mg/kg, ip administered for 2 weeks and measured after 2 week relative to control. The format is functional. As to conditions: 336 h, read-out: TGI.

Consider `O=C(CCCCCCC(=O)Nc1ccccc1)NO` [VORINOSTAT], for which, in the assay on A549, the GI50 amounted to 1020 nM. Besides, the 50% inhibitory concentration (IC50) in assay [1] was greater than 1000 nM.
For `CC(C)c1cc(C(=O)N2Cc3ccc(NC(=O)CCC(=O)NO)cc3C2)c(O)cc1O`, the GI50 is 39000 nM in the assay with NCI-H1975 [2] and 830 nM with A549 (Homo sapiens, A549). For the same compound, the concentration for half-maximal inhibition (IC50) at Histone deacetylase was greater than 1000 nM; in [3], greater than 10000 nM; on Histone deacetylase 8 it was 7320 nM; in assay [1], 123 nM.
On to `CC(C)c1cc(C(=O)N2Cc3ccc(/C=C/C(=O)NO)cc3C2)c(O)cc1O`, for which the IC50 was 3150 nM at Histone deacetylase 1; greater than 1000 nM at Histone deacetylase; 303 nM in [3]; 3990 nM at Histone deacetylase 3; 675 nM on Histone deacetylase 8; 104 nM in assay [1]. In addition, the Ratio IC50 is 10.4 in the assay filed under Homo sapiens [4], 13.2 in the assay listed under Homo sapiens [5] and 2.2 in the assay listed under Homo sapiens [6]. In addition, the GI50 in the assay with NCI-H1975 [2] came out at 32000 nM; in the assay on A549 (Homo sapiens, A549) it was 2740 nM.
As to `CC(C)c1cc(C(=O)N2Cc3ccc(NC(=O)CCCCCCCC(=O)NO)cc3C2)c(O)cc1O`, the IC50 on Histone deacetylase 1 was 1080 nM; against Histone deacetylase, 198.9 nM; in [3], 2.12 nM; on Histone deacetylase 3 it was 494 nM; at Histone deacetylase 8, greater than 10000 nM; in assay [1], 422 nM. For the same compound, the Ratio IC50 is 507 in the assay filed under Homo sapiens [4], 233 in the assay filed under Homo sapiens [5] and greater than 4720 in the assay filed under Homo sapiens [6]. The GI50 was determined as 1070 nM in the assay with NCI-H1975 [2] and 235000 nM in the assay on A549 (Homo sapiens, A549).
Regarding `CC(C)c1cc(C(=O)N2Cc3ccc(NC(=O)CCCCC(=O)NO)cc3C2)c(O)cc1O`, the IC50 on Histone deacetylase 1 is 6880 nM; against Histone deacetylase, greater than 1000 nM; in assay [3], 330 nM; against Histone deacetylase 3, 2810 nM; at Histone deacetylase 8, 7420 nM; in [1], 109 nM. Besides, the Ratio IC50 in the assay filed under Homo sapiens [4] is 20.8; in the assay filed under Homo sapiens [5], 8.5; in the assay listed under Homo sapiens [6] it was 22.5. The GI50 in the assay with NCI-H1975 [2] came to 1640 nM; in the assay on A549 (Homo sapiens, A549), 870 nM.
As for `CC(C)c1cc(C(=O)N2Cc3ccc(NC(=O)CCCC(=O)NO)cc3C2)c(O)cc1O`, the IC50 at Histone deacetylase 1 was 7430 nM; on Histone deacetylase it was greater than 1000 nM; in assay [3], 68.6 nM; against Histone deacetylase 3 it was 4410 nM; in assay [1] it was 136 nM. For the same compound, the Ratio IC50 in the assay filed under Homo sapiens [4] stood at 108; in the assay listed under Homo sapiens [5], 64.3. Besides, the GI50 with NCI-H1975 [2] was greater than 10000 nM; with A549 (Homo sapiens, A549), greater than 10000 nM.
On to `CC(C)c1cc(C(=O)N2Cc3ccc(NCc4ccc(C(=O)NO)cc4)cc3C2)c(O)cc1O`, for which the IC50 was greater than 10000 nM on Histone deacetylase 1; greater than 1000 nM on Histone deacetylase; 33.3 nM in [3]; 9850 nM on Histone deacetylase 3; 420 nM at Histone deacetylase 8; 66 nM in assay [1]. Moreover, the Ratio IC50 in the assay listed under Homo sapiens [4] is greater than 300; in the assay listed under Homo sapiens [5] it was 296; in the assay listed under Homo sapiens [6], 12.6. For the same compound, the GI50 in the assay on NCI-H1975 [2] turned out to be 130 nM; in the assay on A549 (Homo sapiens, A549), 370 nM.
`CC(C)c1cc(C(=O)N2Cc3ccc(NCc4ccc(CN5CCN(C)CC5)cc4)cc3C2)c(O)cc1O`: the inhibition entry in assay [7] and in assay [8] was “Active” each time.
`COc1c(C)cnc(Cn2cnc3c(Cl)nc(N)nc32)c1C` [BIIB021]: the GI50 in the assay with NCI-H1975 [2] was found to be 200 nM; in the assay on A549 (Homo sapiens, A549) it was 330 nM. For the same compound, the IC50 against Histone deacetylase was greater than 1000 nM.
Take `CC(C)c1cc(C(=O)N2Cc3ccc(NC(=O)CCCCCCC(=O)NO)cc3C2)c(O)cc1O`: the IC50 on Histone deacetylase 1 worked out at 554 nM; against Histone deacetylase, 1683 nM; in assay [3] it was 2.21 nM; on Histone deacetylase 3, 388 nM; at Histone deacetylase 8, 1510 nM; in assay [1], 43.9 nM. The values for the Ratio IC50 in the assay filed under Homo sapiens [4], in the assay listed under Homo sapiens [5] and in the assay filed under Homo sapiens [6] were 250, 175 and 683, respectively. Besides, the GI50 was 434000 nM in the assay on NCI-H1975 [2] and 2920 nM with A549 (Homo sapiens, A549).
Take `CC(C)c1cc(C(=O)N2Cc3ccc(NC(=O)CCCCCC(=O)NO)cc3C2)c(O)cc1O`: the IC50 on Histone deacetylase 1 is 3810 nM; against Histone deacetylase, 521.4 nM; in assay [3], 9.44 nM; against Histone deacetylase 3 it was 2210 nM; at Histone deacetylase 8, 2010 nM; in [1] it was 43.9 nM. In addition, the Ratio IC50 in the assay filed under Homo sapiens [4] amounted to 404; in the assay listed under Homo sapiens [5], 234; in the assay filed under Homo sapiens [6], 213. Also, the GI50 in the assay on NCI-H1975 [2] came to 680 nM; in the assay on A549 (Homo sapiens, A549), 2220 nM.
In the case of `CN(C)C/C=C/C(=O)Nc1cc2c(Nc3ccc(F)c(Cl)c3)ncnc2cc1O[C@H]1CCOC1` [AFATINIB], the inhibition in vivo at 20 mg/kg in the assay on NCI-H1975 [9] came to 63.8%.
